Legend:
Assay in all cases: Kinase inhibitor library screening, PrestoBlue cell viability, 1 or 10 μM, 72 h
[1] = test system: IGR37-GP cells (Dabrafenib-resistant); conditions: for Cell viability in kinase inhibitor library screening, IGR37 GP, 10μΜ / Cell viability in kinase inhibitor library screening, IGR37 GP, 1μΜ: 72 h; for Cell viability in kinase inhibitor library screening, IGR37 GP, 1μΜ / cell viability (kinase inhibitor library screening): in %; for Cell viability in kinase inhibitor library screening, IGR37 GP, 10μΜ / Cell viability in kinase inhibitor library screening, IGR37 GP, 1μΜ / cell viability (kinase inhibitor library screening): IGR37 GP
[2] = test system: A375-XP cells (Vemurafenib-resistant); conditions: for Cell viability in kinase inhibitor library screening, A375 XP, 1μΜ / Cell viability in kinase inhibitor library screening, A375 XP, 10μΜ: 72 h; for Cell viability in kinase inhibitor library screening, A375 XP, 1μΜ / Cell viability in kinase inhibitor library screening, A375 XP, 10μΜ / cell viability (kinase inhibitor library screening): A375 XP; for cell viability (kinase inhibitor library screening): in %
501Mel cells (parental) = test system: 501Mel cells (parental)
How it was run: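 Parental cells and Vemurafenib-resistant (XP) or Dabrafenib-resistant (GP) derivatives were treated with library kinase inhibitors at 1 and 10 μM for 72 h. Viability measured by PrestoBlue and expressed as % of untreated cells, at least in duplicate.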

IGR37 cells (parental) = conditions: for Cell viability in kinase inhibitor library screening, IGR37 Parental, 1μΜ / Cell viability in kinase inhibitor library screening, IGR37 Parental, 10μΜ: 72 h
[3] = test system: 501Mel-GP cells (Dabrafenib-resistant)
[4] = test system: A375-GP cells (Dabrafenib-resistant); conditions: for Cell viability in kinase inhibitor library screening, A375 GP, 1μΜ / Cell viability in kinase inhibitor library screening, A375 GP, 10μΜ: 72 h; for Cell viability in kinase inhibitor library screening, A375 GP, 1μΜ / Cell viability in kinase inhibitor library screening, A375 GP, 10μΜ / cell viability (kinase inhibitor library screening): A375 GP; for cell viability (kinase inhibitor library screening): in %
A375 cells (parental) = conditions: for Cell viability in kinase inhibitor library screening, A375 Parental, 10μΜ / Cell viability in kinase inhibitor library screening, A375 Parental, 1μΜ: 72 h
[5] = test system: IGR37-XP cells (Vemurafenib-resistant); conditions: for Cell viability in kinase inhibitor library screening, IGR37 XP, 10μΜ / Cell viability in kinase inhibitor library screening, IGR37 XP, 1μΜ: 72 h; for Cell viability in kinase inhibitor library screening, IGR37 XP, 1μΜ / cell viability (kinase inhibitor library screening): in %; for Cell viability in kinase inhibitor library screening, IGR37 XP, 10μΜ / Cell viability in kinase inhibitor library screening, IGR37 XP, 1μΜ / cell viability (kinase inhibitor library screening): IGR37 XP
[6] = test system: 501Mel-XP cells (Vemurafenib-resistant); conditions: for Cell viability in kinase inhibitor library screening, 501Mel XP, 1μΜ / Cell viability in kinase inhibitor library screening, 501Mel XP, 10μΜ / cell viability (kinase inhibitor library screening): in %, 501Mel XP
[7] = 501Mel Parental, 1μΜ, 72 h, in %

Structure (SMILES) | Cell viability in kinase inhibitor library screening, IGR37 GP, 10μΜ ([1]; 10μΜ) [%] | Cell viability in kinase inhibitor library screening, IGR37 GP, 1μΜ ([1]; 1μΜ) | Cell viability in kinase inhibitor library screening, A375 XP, 1μΜ ([2]; 1μΜ) | Cell viability in kinase inhibitor library screening, A375 XP, 10μΜ ([2]; 10μΜ) | Cell viability in kinase inhibitor library screening, 501Mel Parental, 1μΜ (501Mel cells (parental); [7]) | Cell viability in kinase inhibitor library screening, 501Mel Parental, 10μΜ (501Mel cells (parental); 501Mel Parental, 72 h, in %) | Cell viability in kinase inhibitor library screening, IGR37 Parental, 1μΜ (IGR37 cells (parental); IGR37 Parental, in %) | Cell viability in kinase inhibitor library screening, IGR37 Parental, 10μΜ (IGR37 cells (parental); IGR37 Parental, 10μΜ, in %) | Cell viability in kinase inhibitor library screening, 501Mel GP, 1μΜ ([3]; 501Mel GP, 72 h, in %) | Cell viability in kinase inhibitor library screening, 501Mel GP, 10μΜ ([3]; 501Mel GP, 10μΜ, 72 h, in %) | Cell viability in kinase inhibitor library screening, A375 GP, 1μΜ ([4]; 1μΜ) | Cell viability in kinase inhibitor library screening, A375 GP, 10μΜ ([4]; 10μΜ) | Cell viability in kinase inhibitor library screening, A375 Parental, 10μΜ (A375 cells (parental); A375 Parental, 10μΜ) | Cell viability in kinase inhibitor library screening, A375 Parental, 1μΜ (A375 cells (parental); A375 Parental) | Cell viability in kinase inhibitor library screening, IGR37 XP, 10μΜ ([5]; 10μΜ) [%] | Cell viability in kinase inhibitor library screening, IGR37 XP, 1μΜ ([5]; 1μΜ) | Cell viability in kinase inhibitor library screening, 501Mel XP, 1μΜ ([6]; 1μΜ, 72 h) | Cell viability in kinase inhibitor library screening, 501Mel XP, 10μΜ ([6]; 10μΜ, 72 h) | other results
O=c1sn(-c2cccc3ccccc23)c(=O)n1Cc1ccccc1 [Tideglusib] |  |  |  |  |  |  |  |  |  |  |  |  |  |  |  |  |  |  | viability at 1 µM ([1]; Homo sapiens, IGR-37, 72 h, read-out: cell viability, IGR37 GP, 1μΜ): 94.6%; viability at 10 µM ([1]; Homo sapiens, IGR-37, 72 h, read-out: cell viability, IGR37 GP, 10μΜ): 95.9%; viability at 1 µM ([2]; Homo sapiens, A-375, 72 h, read-out: cell viability, A375 XP, 1μΜ): 105%; viability at 10 µM ([2]; Homo sapiens, A-375, 72 h, read-out: cell viability, A375 XP, 10μΜ): 108%; viability at 1 µM (501Mel cells (parental); Homo sapiens, 72 h, read-out: cell viability, 501Mel Parental, 1μΜ): 110%; viability at 10 µM (501Mel cells (parental); Homo sapiens, 72 h, read-out: cell viability, 501Mel Parental, 10μΜ): 105%; viability at 1 µM (IGR37 cells (parental); Homo sapiens, IGR-37, 72 h, read-out: cell viability, IGR37 Parental, 1μΜ): 103%; viability at 10 µM (IGR37 cells (parental); Homo sapiens, IGR-37, 72 h, read-out: cell viability, IGR37 Parental, 10μΜ): 99.7%; viability at 1 µM ([3]; Homo sapiens, 72 h, read-out: cell viability, 501Mel GP, 1μΜ): 102%; viability at 10 µM ([3]; Homo sapiens, 72 h, read-out: cell viability, 501Mel GP, 10μΜ): 91.6%; viability at 1 µM ([4]; Homo sapiens, A-375, 72 h, read-out: cell viability, A375 GP, 1μΜ): 98.4%; viability at 10 µM ([4]; Homo sapiens, A-375, 72 h, read-out: cell viability, A375 GP, 10μΜ): 97.5%; viability at 1 µM (A375 cells (parental); Homo sapiens, A-375, 72 h, read-out: cell viability, A375 Parental, 1μΜ): 95.4%; viability at 10 µM (A375 cells (parental); Homo sapiens, A-375, 72 h, read-out: cell viability, A375 Parental, 10μΜ): 97.4%; viability at 1 µM ([5]; Homo sapiens, IGR-37, 72 h, read-out: cell viability, IGR37 XP, 1μΜ): 96.4%; viability at 10 µM ([5]; Homo sapiens, IGR-37, 72 h, read-out: cell viability, IGR37 XP, 10μΜ): 74.1%; viability at 1 µM ([6]; Homo sapiens, 72 h, read-out: cell viability, 501Mel XP, 1μΜ): 98.8%; viability at 10 µM ([6]; Homo sapiens, 72 h, read-out: cell viability, 501Mel XP, 10μΜ): 90.4%
Cc1c(CN2CCN(C(=O)[C@H](C)O)CC2)sc2c(N3CCOCC3)nc(-c3cnc(N)nc3)nc12 [GDC-0980 (RG7422)] | 2.9 | 58.6 | 31.2 | 3.3 | 19.3 | 1.0 | 35.3 | 2.0 | 21.4 | 5.1 | 33.1 | 4.0 | 2.2 | 22.3 | 1.5 | 21.6 | 15.9 | 0.8 | 
CC[C@@H]1C(=O)N(C)c2cnc(Nc3ccc(C(=O)NC4CCN(C)CC4)cc3OC)nc2N1C1CCCC1 [BI 2536] | 2.8 | 82.9 | 42.2 | 8.5 | 77.3 | 1.6 | 71.6 | 1.3 | 52.3 | 0.263 | 31.1 | 15.5 | 30.1 | 31.0 | 1.5 | 76.3 | 29.2 | -0.237 | 
C[C@@H](N)[C@H]1CC[C@H](C(=O)Nc2ccncc2)CC1.Cl.Cl [Y-27632 2HCl] |  |  |  |  |  |  |  |  |  |  |  |  |  |  |  |  |  |  | cell viability (kinase inhibitor library screening) ([1]; 1μΜ): 98.0; cell viability (kinase inhibitor library screening) ([1]; 10μΜ): 91.2; cell viability (kinase inhibitor library screening) ([2]; 1μΜ): 103.7; cell viability (kinase inhibitor library screening) ([2]; 10μΜ): 107.2; cell viability (kinase inhibitor library screening) (501Mel cells (parental); 501Mel Parental, 1μΜ, in %): 96.3; cell viability (kinase inhibitor library screening) (IGR37 cells (parental); IGR37 Parental, 10μΜ, in %): 97.4; cell viability (kinase inhibitor library screening) ([3]; 501Mel GP, 10μΜ, in %): 87.8; cell viability (kinase inhibitor library screening) ([4]; 1μΜ): 97.3; cell viability (kinase inhibitor library screening) ([4]; 10μΜ): 96.3; cell viability (kinase inhibitor library screening) (A375 cells (parental); A375 Parental, 10μΜ, in %): 91.8; cell viability (kinase inhibitor library screening) ([5]; 1μΜ): 97.8; cell viability (kinase inhibitor library screening) ([5]; 10μΜ): 70.6; cell viability (kinase inhibitor library screening) ([6]; 1μΜ): 90.1; cell viability (kinase inhibitor library screening) ([6]; 10μΜ): 88.2

Reference: paper PMC6364417, “Kinase inhibitor library screening identifies synergistic drug combinations effective in sensitive and resistant melanoma cells” (Journal of Experimental & Clinical Cancer Research : CR, 2019)
